From patent publication US10770169B2, “Method of providing a treatment to a subject based on a dynamic pathway map” (THE REGENTS OF THE UNIVERSITY OF CALIFORNIA, priority 2010, dated 2020)

Columns and labels:
[1] = system: panel of 55 breast cancer cell lines; experiment: Cell growth inhibition assay (Cell Titer Glo, 72 h, 9 doses; GI50, TGI, LC50); type: cell-based, human; conditions: value is the negative log10 of mol/L
[2] = system: luminal, basal, claudin-low and ERBB2AMP breast cancer cell lines; experiment: Associations of clinically relevant subtypes and response (non-parametric ANOVA or t-test on GI50 ranks); type: cell-based, human; conditions: Table 6; most sensitive subtype, FDR p<0.20
How it was run: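 GI50 values were compared between cell-line subtype groups by non-parametric ANOVA or t-test on ranks. P-values from three test sets were combined and FDR-corrected. Significant three-group effects were followed by post-hoc comparison of each group against all others, and FDR p<0.20 counted as significant.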

`C=CCNC1=C2C[C@@H](C)C[C@H](OC)[C@H](O)[C@@H](C)/C=C(\C)[C@H](OC(N)=O)[C@@H](OC)/C=C\C=C(/C)C(=O)NC(=CC1=O)C2=O` [17-AAG] gave a GI50 ([1]; 600MPE cell line, censored GI50 values) of 6.87, a GI50 ([1]; AU565 cell line, censored GI50 values) of 7.25 and a GI50 ([1]; BT474 cell line, censored GI50 values) of 7.69. The GI50 ([1]; BT483 cell line, censored GI50 values) was 6.65, the GI50 ([1]; BT549 cell line, censored GI50 values) was 7.47 and the GI50 ([1]; CAMA1 cell line, censored GI50 values) was 6.57. For the same compound, the GI50 ([1]; HCC38 cell line, censored GI50 values) was 7.23, the GI50 ([1]; HCC70 cell line, censored GI50 values) was 6.62 and the GI50 ([1]; HCC202 cell line, censored GI50 values) was 8.39. It also gave a GI50 ([1]; HCC1143 cell line, censored GI50 values) of 6.86, a GI50 ([1]; HCC1187 cell line, censored GI50 values) of 5.29 and a GI50 ([1]; HCC1395 cell line, censored GI50 values) of 6.54. It also gave a GI50 ([1]; HCC1419 cell line, censored GI50 values) of 7.35, a GI50 ([1]; HCC1428 cell line, censored GI50 values) of 7.70 and a GI50 ([1]; HCC1500 cell line, censored GI50 values) of 6.91. The GI50 ([1]; HCC1806 cell line, censored GI50 values) was 7.04, the GI50 ([1]; HCC1937 cell line, censored GI50 values) was 6.87 and the GI50 ([1]; HCC1954 cell line, censored GI50 values) was 7.49. It also gave a GI50 ([1]; HCC2185 cell line, censored GI50 values) of 6.93, a GI50 ([1]; HCC3153 cell line, censored GI50 values) of 6.81 and a GI50 ([1]; LY2 cell line, censored GI50 values) of 6.97. It also gave a GI50 ([1]; MCF7 cell line, censored GI50 values) of 6.25, a GI50 ([1]; MDAMB134VI cell line, censored GI50 values) of 7.46 and a GI50 ([1]; MDAMB175VII cell line, censored GI50 values) of 7.54. It also gave a GI50 ([1]; MDAMB231 cell line, censored GI50 values) of 6.11, a GI50 ([1]; MDAMB361 cell line, censored GI50 values) of 7.24 and a GI50 ([1]; MDAMB415 cell line, censored GI50 values) of 7.30. It also gave a GI50 ([1]; MDAMB436 cell line, censored GI50 values) of 5.96, a GI50 ([1]; MDAMB453 cell line, censored GI50 values) of 7.14 and a GI50 ([1]; MDAMB468 cell line, censored GI50 values) of 5.62. The GI50 ([1]; SKBR3 cell line, censored GI50 values) was 7.50, the GI50 ([1]; SUM44PE cell line, censored GI50 values) was 8.84 and the GI50 ([1]; SUM52PE cell line, censored GI50 values) was 7.46. It also gave a GI50 ([1]; SUM149PT cell line, censored GI50 values) of 7.00, a GI50 ([1]; SUM159PT cell line, censored GI50 values) of 7.46 and a GI50 ([1]; SUM185PE cell line, censored GI50 values) of 7.46. The GI50 ([1]; SUM1315MO2 cell line, censored GI50 values) was 7.66, the GI50 ([1]; UACC893 cell line, censored GI50 values) was 7.90 and the GI50 ([1]; ZR75B cell line, censored GI50 values) was 7.14. For the same compound, the GI50 ([1]; ZR751 cell line, censored GI50 values) was 6.56, the GI50 ([1]; cell line 600MPE) was 6.87 and the GI50 ([1]; cell line AU565) was 7.25. The GI50 ([1]; cell line BT474) was 7.69, the GI50 ([1]; cell line BT483) was 6.65 and the GI50 ([1]; cell line BT549) was 7.47. For the same compound, the GI50 ([1]; cell line CAMA1) was 6.57, the GI50 ([1]; cell line HCC38) was 7.23 and the GI50 ([1]; cell line HCC70) was 6.62. It also gave a GI50 ([1]; cell line HCC202) of 8.39, a GI50 ([1]; cell line HCC1143) of 6.86 and a GI50 ([1]; cell line HCC1187) of 5.29. For the same compound, the GI50 ([1]; cell line HCC1395) was 6.54, the GI50 ([1]; cell line HCC1419) was 7.35 and the GI50 ([1]; cell line HCC1428) was 7.70. The GI50 ([1]; cell line HCC1500) was 6.91, the GI50 ([1]; cell line HCC1806) was 7.04 and the GI50 ([1]; cell line HCC1937) was 6.87. For the same compound, the GI50 ([1]; cell line HCC1954) was 7.49, the GI50 ([1]; cell line HCC2185) was 6.93 and the GI50 ([1]; cell line HCC3153) was 6.81. For the same compound, the GI50 ([1]; cell line LY2) was 6.97, the GI50 ([1]; cell line MCF7) was 6.25 and the GI50 ([1]; cell line MDAMB134V) was 7.46. It also gave a GI50 ([1]; cell line MDAMB175V) of 7.54, a GI50 ([1]; cell line MDAMB231) of 6.11 and a GI50 ([1]; cell line MDAMB361) of 7.24. For the same compound, the GI50 ([1]; cell line MDAMB415) was 7.30, the GI50 ([1]; cell line MDAMB436) was 5.96 and the GI50 ([1]; cell line MDAMB453) was 7.14. The GI50 ([1]; cell line MDAMB468) was 5.62, the GI50 ([1]; cell line SKBR3) was 7.50 and the GI50 ([1]; cell line SUM44PE) was 8.84. For the same compound, the GI50 ([1]; cell line SUM52PE) was 7.46, the GI50 ([1]; cell line SUM149PT) was 7.00 and the GI50 ([1]; cell line SUM159PT) was 7.46. The GI50 ([1]; cell line SUM185PE) was 7.46, the GI50 ([1]; cell line SUM1315MO) was 7.66 and the GI50 ([1]; cell line UACC893) was 7.90. The GI50 ([1]; cell line ZR75B) was 7.14, the GI50 ([1]; cell line ZR751) was 6.56 and the Subtype specificity [2] was “Luminal/ERBB2AMP”.
